Results published in patent publication US20010034357A1, “Substituted pyridine compounds useful for controlling chemical synaptic transmission” (priority 2000, published 2001).
Read-outs that look alike come from different tables or passages of the source.

Experiments:
mouse hot plate paradigm = mouse hot plate paradigm (analgesia, latency until tenth jump); assay type: in vivo; conditions: mice, intraperitoneal, dosed 30 minutes prior to testing, hot plate 55° C.; for Analgesic MED: minimally effective dose among the doses tested; for Analgesic MED (μmol/kg): footnote symbols for no effect
Description: An in vivo protocol was utilized to determine the effectiveness of nicotinic acetylcholine receptor ligands as analgesic agents in the mouse hot plate paradigm.
Separate groups of mice, (n=8/group) were utilized for each dose group. All drugs were administered by the intraperitoneal route of administration. Test drugs were dissolved in water to make a 6.2 mM stock solution. Animals were dosed with this solution (10 mL/kg body weight) for a 62 micromol/kg dose. Lower doses were administered similarly, following serial dilution of the stock solution in half-log increments. Animals were dosed 30 minutes prior to testing in the hot plate. The hot-plate utilized was an automated analgesia monitor (Model #AHP16AN, Omnitech Electronics, Inc. of Columbus, Ohio). The temperature of the hot plate was maintained at 55° C. and a cut-off time of 180 seconds was utilized. A control was run against each compound tested. Latency until the tenth jump was recorded as the dependent measure. An increase in the tenth jump latency relative to the control was considered a significant effect.

[1] = target: T1, neuronal nicotinic acetylcholine receptors (Rattus norvegicus, UniProt P09483+P12390); assay: [3H]-cytisine binding to neuronal nicotinic acetylcholine receptors, crude synaptic membranes from whole rat brain
T1 construct: crude synaptic membrane preparations from whole rat brain; from tissue; host or cells: whole rat brain, crude synaptic membranes
T1 sequence (P09483 31-630): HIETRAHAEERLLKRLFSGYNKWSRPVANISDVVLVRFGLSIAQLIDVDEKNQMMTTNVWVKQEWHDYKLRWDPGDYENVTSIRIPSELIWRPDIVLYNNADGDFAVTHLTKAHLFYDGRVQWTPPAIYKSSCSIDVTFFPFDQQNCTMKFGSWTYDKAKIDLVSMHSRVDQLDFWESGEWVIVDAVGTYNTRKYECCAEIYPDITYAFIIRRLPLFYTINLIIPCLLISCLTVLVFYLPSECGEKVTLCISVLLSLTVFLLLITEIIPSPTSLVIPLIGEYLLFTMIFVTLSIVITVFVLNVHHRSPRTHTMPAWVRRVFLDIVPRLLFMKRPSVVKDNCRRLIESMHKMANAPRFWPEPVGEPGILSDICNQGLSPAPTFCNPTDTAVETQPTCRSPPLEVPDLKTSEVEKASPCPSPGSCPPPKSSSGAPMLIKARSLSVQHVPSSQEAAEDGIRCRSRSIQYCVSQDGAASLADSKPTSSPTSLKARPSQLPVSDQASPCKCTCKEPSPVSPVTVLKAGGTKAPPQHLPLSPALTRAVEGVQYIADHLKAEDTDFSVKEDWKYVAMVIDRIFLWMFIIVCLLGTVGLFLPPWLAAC
T1 sequence (P12390 25-500): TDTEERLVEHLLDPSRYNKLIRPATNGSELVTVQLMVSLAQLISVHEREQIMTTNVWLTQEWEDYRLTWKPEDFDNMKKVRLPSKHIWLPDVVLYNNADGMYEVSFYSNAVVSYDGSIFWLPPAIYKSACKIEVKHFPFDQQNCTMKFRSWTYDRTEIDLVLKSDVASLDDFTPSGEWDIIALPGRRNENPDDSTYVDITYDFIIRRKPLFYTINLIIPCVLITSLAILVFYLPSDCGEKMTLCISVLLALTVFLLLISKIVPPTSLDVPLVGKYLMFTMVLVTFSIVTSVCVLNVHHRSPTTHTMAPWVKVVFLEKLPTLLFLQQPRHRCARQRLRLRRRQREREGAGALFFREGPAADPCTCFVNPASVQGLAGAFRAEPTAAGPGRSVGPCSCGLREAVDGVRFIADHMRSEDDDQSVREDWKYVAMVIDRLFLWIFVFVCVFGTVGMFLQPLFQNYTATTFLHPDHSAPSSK
Description: The in vitro protocols for determination of nicotinic acetylcholine channel receptor binding potencies of ligands was determined as follows.
Binding of [^3H]-cytisine ([^3H]-CYT) to neuronal nicotinic acetylcholine receptors was accomplished using crude synaptic membrane preparations from whole rat brain (Pabreza et al., Molecular Pharmacol., 1990, 39:9). Washed membranes were stored at −80° C. prior to use. Frozen aliquots were slowly thawed and resuspended in 20 volumes of buffer (containing: 120 mM NaCl, 5 mM KCl, 2 mM MgCl2, 2 mM CaCl2 and 50 mM Tris-Cl, pH 7.4 @4° C.). After centrifuging at 20,000×g for 15 minutes, the pellets were resuspended in 30 volumes of buffer.
The test compounds were dissolved in water to make 10 mM stock solutions. Each solution was then diluted (1:100) with buffer (as above) and further taken through seven serial log dilutions to produce test solutions from 10^−5 to 10^−11 M.
Homogenate (containing 125-150 µg protein) was added to triplicate tubes containing the range of concentrations of test compound described above and [^3H]-CYT (1.25 nM) in a final volume of 500 μL. Samples were incubated for 60 minutes at 4° C., then rapidly filtered through Whatman GF/B filters presoaked in 0.5% polyethyleneimine using 3×4 mL of ice-cold buffer. The filters are counted in 4 mL of Ecolume® (ICN). Nonspecific binding was determined in the presence of 10 μM (−)-nicotine and values were expressed as a percentage of total binding. IC50 values were determined with a four-parameter non-linear regression and IC50 values were converted to K1 values using the Cheng and Prusoff correction (K1=IC50/(1+[ligand]/Kd of ligand).
Each Example number corresponds to the synthetic Examples described above. […] The lower the Ki value, the more affinity for neuronal nicotinic acetylcholine receptors.

[2] = [3H]-CYT 1.25 nM, whole rat brain membranes, 60 minutes at 4° C., Cheng and Prusoff correction, Table 1, read-out: Ki

Compound	Analgesic MED (mouse hot plate paradigm) [µmol/kg]	Ki ([1]; Ki (nM)) [nM]	Ki [1, 2] [nM]	Analgesic MED (μmol/kg) (mouse hot plate paradigm)	melting point [°C]
CC(N)COc1ccc(Cl)nc1 (stereo in doubt) [Example 26, 5-[(S)-2-amino-1-propyloxy]-2-chloro pyridine p-toluenesulfonic acid]	62	5.34			
C[C@@H](N)COc1ccc(F)nc1.Cc1ccc(S(=O)(=O)O)cc1 [Example 29, 5-[(R)-2-amino-1-propyloxy]-2-fluoro pyridine p-toluenesulfonic acid]	62		6.6		
CC(COc1cnc(Cl)c(C=Cc2ccncc2)c1)N(C)C (single isomer, unassigned) [Example 14]			0.367	* (no effect at 62)	79 to 81
CN[C@@H](C)COc1ccc(Cl)nc1.Cc1ccc(S(=O)(=O)O)cc1 [Example 3, 5-[(S)-2-methylamino-1-propyloxy]-2-chloro pyridine p-toluenesulfonic acid]	62		40.6		
5-[(S)-2-amino-3-phenyl-1-propyloxy]-2-chloro-3-(4-vinylpyridinyl) pyridine di-p-toluenesulfonic acid [Example 23]			9.89	* (no effect at 62)	
Cc1cc(OC[C@H](C)N(C)C)cnc1Cl.Cc1ccc(S(=O)(=O)O)cc1 [Example 11, 5-[(S)-2-dimethylamino-1-propyloxy]-2-chloro-3-methyl pyridine p-toluenesulfonic acid]			9.6	* (no effect at 62)	
Cc1cc(OC[C@@H](C)N)cnc1Cl.Cc1ccc(S(=O)(=O)O)cc1 [Example 35, 5-[(R)-2-amino-1-propyloxy]-2-chloro-3-methyl pyridine p-toluenesulfonic acid]	62		0.985		
C[C@H](N)COc1ccc(F)nc1.Cc1ccc(S(=O)(=O)O)cc1 [Example 4, 5-[(S)-2-amino-1-propyloxy]-2-fluoro pyridine p-toluenesulfonic acid]	6.2		8.69		
C[C@H](N)COc1cnc(Cl)c(C=Cc2ccncc2)c1.Cc1ccc(S(=O)(=O)O)cc1 [Example 13, 5-[(S)-2-amino-1-propyloxy]-2-chloro-3-(4-vinylpyridinyl) pyridine p-toluenesulfonic acid]			0.0761	* (no effect at 62)	
CN(C)[C@H](COc1cnc(Cl)c(C=Cc2ccncc2)c1)Cc1ccccc1 [Example 24, 5-[(S)-2-N-dimethyl-amino-3-phenyl-1-propyloxy]-2-chloro-3-(4-vinylpyridinyl) pyridine di-p-toluenesulfonic acid]			4.63	* (no effect at 62)	81 to 83
CC[C@@H](COc1cnc(Cl)c(C=Cc2ccncc2)c1)N(C)C [Example 20, 5-[(S)-2-N-dimethylamino-1-butyloxy]-2-chloro-3-(4-vinylpyridinyl) pyridine di-p-toluenesulfonic acid]			3.61		73 to 75
CC[C@H](N)COc1cnc(Cl)c(Br)c1.Cc1ccc(S(=O)(=O)O)cc1 [Example 18, 5-[(S)-2-amino-1-butyloxy]-2-chloro-3-bromo pyridine p-toluenesulfonic acid]			14.8	* (no effect at 62)	
CN[C@H](C)COc1ccc(F)nc1.Cc1ccc(S(=O)(=O)O)cc1 [Example 31, 5-[(R)-2-methylamino-1-propyloxy]-2-fluoro pyridine p-toluenesulfonic acid]	62		11.4		
CC(COc1cnc(Cl)c(C=Cc2ccncc2)c1)N(C)C (single isomer, unassigned) [Example 39]			0.103	* (no effect at 62)	81 to 83
C[C@H](N)COc1cnc(Cl)c(Br)c1.Cc1ccc(S(=O)(=O)O)cc1 [Example 7, 5-[(S)-2-amino-1-propyloxy]-2-chloro-3-bromo pyridine p-toluenesulfonic acid]			1.55	* (no effect at 62)	
